Article PMC11211441, “Distributable, metabolic PET reporting of tuberculosis” (Nature Communications, 2024)

What was measured:
[1] = Single and repeat iv dose toxicity study in dogs; format: in vivo; conditions: beagle dogs, 100 x or 1000 x expected human dose iv
Experimental: (§1) For toxicity studies, 2 g of [^19F]-FDT was synthesized and tested for quality control as described above and in Figs.39 and shipped to a contract research organization. Toxicity studies were conducted by SRI International, Biosciences Division, Menlo Park, CA, USA in rats and dogs. The experimental design is described in Tables S10, S11, respectively.
To assess the toxicity associated with [^19F]-FDT in dogs, male and female Beagle dogs (5/sex) were given a daily iv injection of [^19F]-FDT at 0.4 mg/kg/day (100 times of human dose; Group 2) for 7 consecutive days, or a single iv administration of [^19F]-FDT at 0.4 or 4 mg/kg (100 and 1000 times of human dose in Groups 3 and 4, respectively) on Day 7. A control group (5/sex; Group 1), was given 7 days of vehicle (HEPES buffer, pH 7.5, 50 mM with MgCl2 7.5 mM), at an equivalent dose volume of 0.25 ml/kg on Days 1–7. Animals were sacrificed on Day 9 (3/sex/ group; main groups) or Day 21 (2/sex/group; recovery groups). The single dose administration for Groups 3–4 were initiated on Day 7 so that clinical pathology and necropsy occurred on the same calendar day for all Groups (1–4), thus allowing for sharing of vehicle control data for analysis of clinical pathology and necropsy results between the two dose regimens.

[2] = Detection/stability of [19F]FDT in human plasma; format: in vitro ADME; conditions: spiked human plasma, LC-MS
Experimental: FDT standards were prepared in human plasma (Sigma Aldrich), whereby 20 μL plasma samples were spiked with various known concentrations of [^19F]FDT i.e. 10 μM, 20 μM, 40 μM, 120 μM, 160 μM, and 300 μM in 1.5 ml Eppendorf tube and diluted with up to 50% acetonitrile solution. Samples were vortexed for 1 min and centrifuged at 13000 rpm (15871 x g) for 10 min and supernatant was analyzed directly by LC-MS using LC method 2.
Figure S35. Detection of [19F]FDT for Assessment of Stability in Human Plasma
A) Experimental set-up of the sample preparation. Commercially available human plasma samples were spiked with known concentrations of [19F] FDT, plasma proteins were then precipitated by adding up to 50% of MeCN solution and after centrifugation the samples were analysed by LC-MS. Panel A created with BioRender.com, released under a Creative Commons Attribution-NonCommercial-NoDerivs 4.0 International license. B) [19F]FDT standard sample analysed by LC-MS method 2 with the retention time of 6.5 min. C) LC-MS analysis of plasma sample spiked with known amount of FDT showing the similar retention […]
efficient detection. D) Calibration curve of plasma samples when spiked with FDT concentrations from 10 µM – 300 µM with r2 = 0.998 and E) Further calibration curve showing instrument sensitivity down to > 390 nM for detection of FDT ( r2 = 0.998 ). […]

[3] = Human microsomal stability assay; conditions: human liver microsomes, 3 µM, 80 min
Experimental: Microsomal stability assay was carried out as described previously. In brief, 10 x reduced nicotinamide adenine dinucleotide phosphate (NADPH)-regenerating system was freshly prepared by dissolving 37.2 mg glucose-6-phosphate (Sigma) in 1 mL of 100 mM potassium phosphate buffer, 39.8 mg nicotinamide adenine dinucleotide phosphate (NADP, Sigma) in 1 mL of potassium phosphate buffer, 11.5 U glucose-6-phosphate dehydrogenase (Thermo) in 1 mL of potassium phosphate buffer and 26.8 mg MgCl2.6H2O (Sigma) in 1 mL of distilled water. All these solutions were combined and kept on ice. […] After 5 min, 18 µL of NADPH-regenerating system was added to initiate reaction. Immediately after adding the NADPH regenerating system, 50 µL, 0 min time point sample was taken and quenched with equal volume of ice-cold methanol. Similarly further samples were taken at 10 min, 30 min, 60 min, 90 min and 120 min. Samples were centrifuged at 10,000 g at 4 °C for 10 min. […] After incubating the reaction mix at 37 °C for 5 min, 36 µL of NADPH regenerating system was added to initiate the reaction. 50 µL samples were taken at 0 min, 2.5 min, 5 min, 10 min, 20 min, 40 min and 80 min and reactions were quenched by adding equal amount of ice-cold acetonitrile and kept on ice.

[4] = Single and repeat iv dose toxicity study in rats; format: in vivo, Sprague Dawley rats
Experimental: as §1

## OC[C@H]1O[C@H](O[C@H]2O[C@H](CO)[C@@H](O)[C@H](O)[C@H]2F)[C@H](O)[C@@H](O)[C@@H]1O [[^19F]FDT]
[1]
  adverse findings in any parameters measured: no adverse findings
[2]
  stability in human plasma: no immediate degradation or apparent sequestration
[3]
  % remaining: > 50%
[4]; Sprague Dawley rats, IV
  maximum tolerated dose (MTD): not reached
[4]; rats, 100 x or 1000 x expected human dose iv
  adverse findings in any parameters measured: no adverse findings
